# In ChEMBL document CHEMBL1201862, “PubChem BioAssay data set” (2004):
#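 Five compound concentrations were applied to cells in 96-well plates for 48 hours; endpoints were derived by simple linear interpolation of the resulting dose-response curve. Here, GI50 denotes the concentration required for 50% inhibition of growth.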 The source made the active and inactive calls. Cut-off read from the data, not from the text of the source: active = GI50 up to about 1.1 µM and inactive = higher.
# Experiments:
# Experiment in all cases: NCI anticancer screen, dose series, 48 h
# [1] = tested on: 786-0
# [2] = tested on: A549
# [3] = tested on: CCRF-CEM
# [4] = tested on: DU-145
# [5] = tested on: HCT-15
# [6] = tested on: HOP-92
# [7] = tested on: M14
# [8] = tested on: MCF7
# [9] = tested on: Malme-3M
# [10] = tested on: NCI-H23
# [11] = tested on: NCI-H522
# [12] = tested on: NCI/ADR-RES
# [13] = tested on: RXF 393
# [14] = tested on: SK-MEL-2
# [15] = tested on: SK-OV-3
# [16] = tested on: SW-620
# [17] = tested on: TK-10
# [18] = tested on: NCI-H460
Compound,GI50 [1],GI50 [2],GI50 [3],GI50 [4],GI50 [5] [µM],GI50 [6],GI50 [7],GI50 [8],GI50 [9],GI50 [10],GI50 [11],GI50 [12],GI50 [13],GI50 [14],GI50 [15],GI50 [16],GI50 [17],GI50 [18]
CC(C)(C)c1cc(Br)c(O)c(CN(Cc2cc(C(C)(C)C)cc(Br)c2O)C2CCCCC2)c1,14.6 µM (inactive),14.1 µM (inactive),13.3 µM (inactive),13.9 µM (inactive),12.8,15.5 µM (inactive),12.9 µM (inactive),13.9 µM (inactive),11.8 µM (inactive),13.5 µM (inactive),12.6 µM (inactive),12 µM (inactive),10.7 µM (inactive),13.1 µM (inactive),15.8 µM (inactive),13.1 µM (inactive),15.8 µM (inactive),–
NC(Cc1ccccc1)C(=O)NC(Cc1ccccc1)NC(=O)C(Cc1c[nH]c2ccccc12)C(=O)O (stereo not drawn),> 100 µM (inactive),> 100 µM (inactive),> 100 µM (inactive),> 100 µM (inactive),> 100,34.8 µM (inactive),> 100 µM (inactive),> 100 µM (inactive),> 100 µM (inactive),> 100 µM (inactive),> 100 µM (inactive),> 100 µM (inactive),> 100 µM (inactive),9.35 µM (inactive),> 100 µM (inactive),> 100 µM (inactive),> 100 µM (inactive),> 100 µM (inactive)
CC(Oc1ccccc1Cl)C(=O)NN1C(=O)CC(=O)N(c2ccccc2)C1=S (stereo not drawn),94.8 µM (inactive),41.1 µM (inactive),–,42.9 µM (inactive),38,20.4 µM (inactive),59 µM (inactive),31 µM (inactive),> 100 µM (inactive),38.1 µM (inactive),37 µM (inactive),38.5 µM (inactive),32.1 µM (inactive),34.4 µM (inactive),51.5 µM (inactive),55.7 µM (inactive),74.8 µM (inactive),44.2 µM (inactive)
Clc1nc(Cl)c(-c2ccccc2)c(Cl)n1,2.5 µM (inactive),17.1 µM (inactive),2.27 µM (inactive),13.5 µM (inactive),2.42,5.45 µM (inactive),1.62 µM (inactive),3.04 µM (inactive),2.02 µM (inactive),4.51 µM (inactive),1.55 µM (inactive),3.42 µM (inactive),2.18 µM (inactive),–,11.2 µM (inactive),2.26 µM (inactive),10.1 µM (inactive),13.4 µM (inactive)
CCc1c2c([nH]c(=S)c1C#N)CCC2,> 100 µM (inactive),> 100 µM (inactive),48.8 µM (inactive),> 100 µM (inactive),> 100,2.35 µM (inactive),> 100 µM (inactive),> 100 µM (inactive),> 100 µM (inactive),> 100 µM (inactive),> 100 µM (inactive),> 100 µM (inactive),> 100 µM (inactive),> 100 µM (inactive),> 100 µM (inactive),> 100 µM (inactive),> 100 µM (inactive),> 100 µM (inactive)
O=C(CSCC(=O)N/N=C/c1ccc(F)cc1)N/N=C/c1ccc(F)cc1,> 100 µM (inactive),54.8 µM (inactive),–,> 100 µM (inactive),> 100,> 100 µM (inactive),76.6 µM (inactive),46.6 µM (inactive),> 100 µM (inactive),> 100 µM (inactive),65.9 µM (inactive),> 100 µM (inactive),85.1 µM (inactive),> 100 µM (inactive),> 100 µM (inactive),> 100 µM (inactive),> 100 µM (inactive),> 100 µM (inactive)
C[N+](C)(C)c1ncnc2c1ncn2C1CCCO1 (stereo not drawn),> 100 µM (inactive),> 100 µM (inactive),> 100 µM (inactive),> 100 µM (inactive),> 100,> 100 µM (inactive),> 100 µM (inactive),> 100 µM (inactive),> 100 µM (inactive),> 100 µM (inactive),> 100 µM (inactive),> 100 µM (inactive),> 100 µM (inactive),> 100 µM (inactive),> 100 µM (inactive),> 100 µM (inactive),> 100 µM (inactive),> 100 µM (inactive)
CCCCCCCCCCCCCCCCCCOCC(CCP(=O)(CP(=O)(O)O)Oc1ccccc1)OCCCCCCCCCCCCCCCCCC (stereo not drawn),> 100 µM (inactive),> 100 µM (inactive),> 100 µM (inactive),> 100 µM (inactive),> 100,> 100 µM (inactive),> 100 µM (inactive),> 100 µM (inactive),> 100 µM (inactive),> 100 µM (inactive),> 100 µM (inactive),> 100 µM (inactive),> 100 µM (inactive),–,> 100 µM (inactive),> 100 µM (inactive),> 100 µM (inactive),> 100 µM (inactive)
Cc1ccc2c(c1)C1(C)OC(C=CC1=O)O2 (stereo not drawn),0.261 µM (active),3.24 µM (inactive),0.114 µM (active),2.72 µM (inactive),0.265,0.435 µM (active),0.316 µM (active),1.27 µM (inactive),0.341 µM (active),0.94 µM (active),0.0769 µM (active),0.0681 µM (active),0.445 µM (active),1.77 µM (inactive),3.24 µM (inactive),0.237 µM (active),1.4 µM (inactive),2.21 µM (inactive)
N#CC(C#N)=C/C=C/c1ccccc1[N+](=O)[O-],3.33 µM (inactive),> 10 µM (inactive),7.57 µM (inactive),> 10 µM (inactive),7.08,5.08 µM (inactive),–,3.95 µM (inactive),3.73 µM (inactive),4.45 µM (inactive),3.33 µM (inactive),2.16 µM (inactive),2.31 µM (inactive),> 10 µM (inactive),> 10 µM (inactive),4.08 µM (inactive),> 10 µM (inactive),9.57 µM (inactive)
CC(=O)Oc1ccc2oc(=O)cc(C)c2c1,> 100 µM (inactive),> 100 µM (inactive),> 100 µM (inactive),> 100 µM (inactive),–,> 100 µM (inactive),> 100 µM (inactive),> 100 µM (inactive),> 100 µM (inactive),> 100 µM (inactive),> 100 µM (inactive),> 100 µM (inactive),> 100 µM (inactive),> 100 µM (inactive),–,> 100 µM (inactive),> 100 µM (inactive),> 100 µM (inactive)
N#CCC1(c2ccc(Cl)cc2)NC(=O)c2ccccc21 (stereo not drawn),> 100 µM (inactive),> 100 µM (inactive),> 100 µM (inactive),> 100 µM (inactive),> 100,> 100 µM (inactive),> 100 µM (inactive),> 100 µM (inactive),> 100 µM (inactive),> 100 µM (inactive),> 100 µM (inactive),> 100 µM (inactive),> 100 µM (inactive),> 100 µM (inactive),> 100 µM (inactive),> 100 µM (inactive),96.2 µM (inactive),> 100 µM (inactive)
Nc1nc(Cl)cc(NCC2(CO)CC(CCCc3ccccc3)C2)n1 (stereo not drawn),> 81.7 µM (inactive),14.7 µM (inactive),> 73.1 µM (inactive),> 100 µM (inactive),> 100,34 µM (inactive),> 100 µM (inactive),0.0492 µM (active),> 100 µM (inactive),–,> 68.7 µM (inactive),4.86 µM (inactive),> 47.1 µM (inactive),> 100 µM (inactive),41.4 µM (inactive),> 100 µM (inactive),> 77.4 µM (inactive),> 69.5 µM (inactive)
O=C(OCCN1CCCCC1)C(c1ccccc1)C1(O)CCSCC1 (stereo not drawn),> 100 µM (inactive),> 100 µM (inactive),> 100 µM (inactive),> 100 µM (inactive),> 100,> 100 µM (inactive),> 100 µM (inactive),> 100 µM (inactive),> 100 µM (inactive),> 100 µM (inactive),> 100 µM (inactive),> 100 µM (inactive),> 100 µM (inactive),> 100 µM (inactive),> 100 µM (inactive),> 100 µM (inactive),> 100 µM (inactive),> 100 µM (inactive)
O=C(CSc1nc2ccccc2s1)c1sc2sc3ccccc3[n+]2c1[O-],> 100 µM (inactive),> 100 µM (inactive),–,> 100 µM (inactive),> 100,> 100 µM (inactive),> 100 µM (inactive),> 100 µM (inactive),> 100 µM (inactive),> 100 µM (inactive),> 100 µM (inactive),> 100 µM (inactive),> 100 µM (inactive),> 100 µM (inactive),> 100 µM (inactive),> 100 µM (inactive),> 100 µM (inactive),> 100 µM (inactive)
COC(=O)[C@]1(c2cc3ccccc3[nH]2)CC2CNC1C1OC(C)(C)OC21 (stereo partly drawn),> 100 µM (inactive),> 100 µM (inactive),> 100 µM (inactive),> 100 µM (inactive),> 100,> 100 µM (inactive),> 100 µM (inactive),> 100 µM (inactive),> 100 µM (inactive),> 100 µM (inactive),> 100 µM (inactive),> 100 µM (inactive),60.1 µM (inactive),> 100 µM (inactive),> 100 µM (inactive),> 100 µM (inactive),> 100 µM (inactive),> 100 µM (inactive)
